Literature values as cited in patent US20040067947A1, “Method of preventing or treating atherosclerosis or restenosis” (priority 2002, published 2004).

Test system: CMV infection of rats
Details: rats infected with CMV; DHPG prophylaxis; Lemstrom et al., Circulation 1994, 90:1969-1978

## Nc1nc(O)c2ncn(COC(CO)CO)c2n1 [Ganciclovir]
  prevention of atherosclerosis resulting from CMV infection: prevent atherosclerosis
